From patent publication US20090181963A1, “3H-[1,2,3]TRIAZOLO[4,5-D]PYRIMIDINE COMPOUNDS, THEIR USE AS mTOR KINASE AND PI3 KINASE INHIBITORS, AND THEIR [sequence]” (Wyeth, priority 2008, published 2009)

Experiments:
PI3 Kinase α = PI3 Kinase α (Homo sapiens, UniProt P42336); experiment: Fluorescence polarization assay for PI3K (PI3 Kinase α); type: biochemical; details: diC8-PI(4,5)P2 substrate, 25 μM ATP, one hour at 25° C.
PI3 Kinase γ = PI3 Kinase γ (Homo sapiens, UniProt P48736); experiment: Fluorescence polarization assay for PI3K (PI3 Kinase γ); type: biochemical; details: diC8-PI(4,5)P2 substrate, 25 μM ATP, one hour at 25° C.
Sequence of PI3 Kinase γ (P48736 whole entry): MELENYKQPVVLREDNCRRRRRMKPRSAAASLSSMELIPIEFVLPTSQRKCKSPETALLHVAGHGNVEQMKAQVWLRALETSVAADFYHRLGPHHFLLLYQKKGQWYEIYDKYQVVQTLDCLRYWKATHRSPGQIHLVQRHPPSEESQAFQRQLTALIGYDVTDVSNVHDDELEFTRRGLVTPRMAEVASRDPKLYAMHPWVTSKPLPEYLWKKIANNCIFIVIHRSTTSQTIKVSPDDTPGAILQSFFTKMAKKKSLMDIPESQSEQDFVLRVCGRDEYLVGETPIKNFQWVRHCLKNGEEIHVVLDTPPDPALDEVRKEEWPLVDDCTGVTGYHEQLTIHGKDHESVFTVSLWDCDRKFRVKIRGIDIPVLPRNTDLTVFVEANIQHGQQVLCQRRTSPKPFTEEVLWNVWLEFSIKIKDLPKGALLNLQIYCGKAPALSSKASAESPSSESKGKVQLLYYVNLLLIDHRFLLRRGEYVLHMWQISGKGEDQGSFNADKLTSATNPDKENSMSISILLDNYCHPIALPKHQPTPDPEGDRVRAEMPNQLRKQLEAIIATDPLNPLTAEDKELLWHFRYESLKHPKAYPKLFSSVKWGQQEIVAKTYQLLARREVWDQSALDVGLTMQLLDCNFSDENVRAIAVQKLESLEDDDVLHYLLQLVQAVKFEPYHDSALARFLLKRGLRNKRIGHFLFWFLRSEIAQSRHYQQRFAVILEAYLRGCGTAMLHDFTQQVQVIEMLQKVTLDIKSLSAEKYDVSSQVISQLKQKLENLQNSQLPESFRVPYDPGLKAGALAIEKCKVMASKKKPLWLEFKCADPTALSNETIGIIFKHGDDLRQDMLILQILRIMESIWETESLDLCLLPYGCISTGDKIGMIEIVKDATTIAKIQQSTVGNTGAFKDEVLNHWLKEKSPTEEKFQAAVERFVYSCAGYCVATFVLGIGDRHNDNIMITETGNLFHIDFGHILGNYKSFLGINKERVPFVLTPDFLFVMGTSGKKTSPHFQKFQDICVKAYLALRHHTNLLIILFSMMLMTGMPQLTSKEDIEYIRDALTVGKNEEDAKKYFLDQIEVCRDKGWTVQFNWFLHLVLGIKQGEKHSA

Sequence of PI3 Kinase α (P42336 whole entry): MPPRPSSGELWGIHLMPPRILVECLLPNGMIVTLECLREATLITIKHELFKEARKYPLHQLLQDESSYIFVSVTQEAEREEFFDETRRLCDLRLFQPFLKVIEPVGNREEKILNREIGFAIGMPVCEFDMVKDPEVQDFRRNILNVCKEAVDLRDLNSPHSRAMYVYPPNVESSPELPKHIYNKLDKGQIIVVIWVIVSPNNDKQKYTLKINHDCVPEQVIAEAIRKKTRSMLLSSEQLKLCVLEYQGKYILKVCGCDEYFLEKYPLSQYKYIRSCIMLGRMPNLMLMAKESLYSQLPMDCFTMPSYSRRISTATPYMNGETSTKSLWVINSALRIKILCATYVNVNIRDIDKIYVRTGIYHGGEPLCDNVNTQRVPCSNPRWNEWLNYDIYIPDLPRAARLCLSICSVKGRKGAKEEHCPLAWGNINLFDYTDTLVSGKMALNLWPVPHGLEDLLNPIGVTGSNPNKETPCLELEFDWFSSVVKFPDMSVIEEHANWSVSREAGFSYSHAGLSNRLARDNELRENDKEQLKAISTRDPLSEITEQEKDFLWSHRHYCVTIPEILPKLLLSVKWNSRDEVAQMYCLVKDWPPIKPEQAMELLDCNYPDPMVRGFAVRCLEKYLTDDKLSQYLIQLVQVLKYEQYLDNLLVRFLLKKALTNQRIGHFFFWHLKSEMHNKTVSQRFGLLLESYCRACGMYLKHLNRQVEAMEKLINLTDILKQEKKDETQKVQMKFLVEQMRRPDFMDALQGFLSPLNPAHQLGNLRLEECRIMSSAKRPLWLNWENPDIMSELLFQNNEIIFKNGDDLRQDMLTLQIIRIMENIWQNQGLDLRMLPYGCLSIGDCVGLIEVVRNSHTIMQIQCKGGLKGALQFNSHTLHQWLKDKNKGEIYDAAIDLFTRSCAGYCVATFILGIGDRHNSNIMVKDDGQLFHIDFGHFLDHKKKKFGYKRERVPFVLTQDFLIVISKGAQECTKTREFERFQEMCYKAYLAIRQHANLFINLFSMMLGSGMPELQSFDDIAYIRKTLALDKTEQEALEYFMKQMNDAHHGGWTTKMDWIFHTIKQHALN
Sequence of PI3 Kinase α (P27986 whole entry partner): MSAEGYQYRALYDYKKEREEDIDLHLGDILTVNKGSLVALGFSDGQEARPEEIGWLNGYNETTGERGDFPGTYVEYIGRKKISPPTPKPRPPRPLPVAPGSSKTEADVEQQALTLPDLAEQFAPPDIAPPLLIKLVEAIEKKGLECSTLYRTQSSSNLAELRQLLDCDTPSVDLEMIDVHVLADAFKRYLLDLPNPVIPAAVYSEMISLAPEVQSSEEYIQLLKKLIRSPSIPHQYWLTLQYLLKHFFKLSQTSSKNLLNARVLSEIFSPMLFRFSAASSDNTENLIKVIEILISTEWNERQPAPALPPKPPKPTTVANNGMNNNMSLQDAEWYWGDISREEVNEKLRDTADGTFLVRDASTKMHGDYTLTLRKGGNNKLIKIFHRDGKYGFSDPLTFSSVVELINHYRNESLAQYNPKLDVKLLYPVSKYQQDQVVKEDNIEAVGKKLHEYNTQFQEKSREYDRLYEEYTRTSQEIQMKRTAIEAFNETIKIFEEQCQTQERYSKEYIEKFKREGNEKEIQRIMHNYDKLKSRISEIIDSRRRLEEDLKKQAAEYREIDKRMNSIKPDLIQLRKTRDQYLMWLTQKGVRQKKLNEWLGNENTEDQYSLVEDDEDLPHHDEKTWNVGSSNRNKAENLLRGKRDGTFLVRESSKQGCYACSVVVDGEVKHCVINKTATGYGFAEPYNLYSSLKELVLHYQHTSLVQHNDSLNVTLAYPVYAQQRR

SMILES | IC50 (PI3 Kinase α) | IC50 (PI3 Kinase γ)
CCn1nnc2c(N3CCOCC3)nc(-c3ccc(NC(=O)Nc4ccc(C(=O)OC)cc4)cc3)nc21 [Example 41, methyl 4-({[4-(3-ethyl-7-morpholin-4-yl-3H-[1,2,3]triazolo[4,5-d]pyrimidin-5-yl)phenyl]carbamoyl}amino)benzoate] | 23.3 nM | 84.5 nM
CC(C)(C)OC(=O)N1CCC(n2nnc3c(N4CCOCC4)nc(-c4ccc(NC(=O)Nc5ccncc5)cc4)nc32)CC1 [Example 166, tert-butyl 4-(7-morpholin-4-yl-5-{4-[(pyridin-4-ylcarbamoyl)amino]phenyl}-3H-[1,2,3]triazolo[4,5-d]pyrimidin-3-yl)piperidine-1-carboxylate] | 36.5 nM | 494 nM
Oc1cncc(-c2nc(N3CCOCC3)c3nnn(C4CCN(Cc5ccc(Cl)nc5)CC4)c3n2)c1 [Example 20, 5-(3-{1-[(6-chloropyridin-3-yl)methyl]piperidin-4-yl}-7-morpholin-4-yl-3H-[1,2,3]triazolo[4,5-d]pyrimidin-5-yl)pyridin-3-ol] | 541 nM | 454 nM
Cc1ccc(CN2CCC(n3nnc4c(N5CCOCC5)nc(-c5ccc(NC(=O)NCCN(C)C)cc5)nc43)CC2)s1 [Example 158, 1-(2-(dimethylamino)ethyl)-3-(4-(3-(1-((5-methylthiophen-2-yl)methyl)piperidin-4-yl)-7-morpholino-3H-[1,2,3]triazolo[4,5-d]pyrimidin-5-yl)phenyl)urea] | 74.5 nM | 342 nM
CCn1nnc2c(N3CCOCC3)nc(-c3ccc(NC(=O)Nc4ccc(C(=O)NCCN(C)C)cc4)cc3)nc21 [Example 43, N-[2-(dimethylamino)ethyl]-4-({[4-(3-ethyl-7-morpholin-4-yl-3H-[1,2,3]triazolo[4,5-d]pyrimidin-5-yl)phenyl]carbamoyl}amino)benzamide] | 1 nM | 18 nM
COc1ccc(NC(=O)Nc2ccc(-c3nc(N4CCOCC4)c4nnn(C(C)C)c4n3)cc2)cc1 [Example 89, 1-(4-methoxy-phenyl)-3-[4-(3-isopropyl-7-morpholin-4-yl-3H-[1,2,3]triazolo[4,5-d]pyrimidin-5-yl)-phenyl]-urea] | 15.5 nM | 40 nM
CN(C)CCNC(=O)c1cccc(-n2nnc3c(N4CCOCC4)nc(-c4cccc(O)c4)nc32)c1 [Example 122, N-[2-(dimethylamino)ethyl]-3-[5-(3-hydroxyphenyl)-7-morpholin-4-yl-3H-[1,2,3]triazolo[4,5-d]pyrimidin-3-yl]benzamide] | 56.5 nM | 260 nM
CNCCNC(=O)Nc1ccc(-c2nc(N3CCOCC3)c3nnn(CC(F)(F)F)c3n2)cc1 [Example 140, 1-[2-(methylamino)ethyl]-3-{4-[7-morpholin-4-yl-3-(2,2,2-trifluoroethyl)-3H-[1,2,3]triazolo[4,5-d]pyrimidin-5-yl]phenyl}urea] | 26.5 nM | 118 nM
COC(Cn1nnc2c(N3CCOCC3)nc(-c3ccc(NC(=O)Nc4ccc(F)cc4)cc3)nc21)OC [Example 180, 1-{4-[3-(2,2-dimethoxyethyl)-7-morpholin-4-yl-3H-[1,2,3]triazolo[4,5-d]pyrimidin-5-yl]phenyl}-3-(4-fluorophenyl)urea] | 67.5 nM | 152 nM
Oc1cncc(-c2nc(N3CCOCC3)c3nnn(C4CCN(Cc5ccc[nH]5)CC4)c3n2)c1 [Example 29, 5-{7-morpholin-4-yl-3-[1-(1H-pyrrol-2-ylmethyl)piperidin-4-yl]-3H-[1,2,3]triazolo[4,5-d]pyrimidin-5-yl}pyridin-3-ol] | 1140 nM | 3110 nM
Nc1ccc(-c2nc(N3CCOCC3)c3nnn(CC(F)(F)F)c3n2)cc1 [Example 133, 4-[7-morpholin-4-yl-3-(2,2,2-trifluoroethyl)-3H-[1,2,3]triazolo[4,5-d]pyrimidin-5-yl]aniline] | 370 nM | 1380 nM
CC(C)n1nnc2c(N3CCOCC3)nc(-c3ccc(NC(=O)Nc4ccncc4)cc3)nc21 [Example 82, 1-[4-(3-isopropyl-7-morpholin-4-yl-3H-[1,2,3]triazolo[4,5-d]pyrimidin-5-yl)-phenyl]-3-pyridin-4-yl-urea] | 5 nM | 21.5 nM
Oc1cncc(-c2nc(N3CCOCC3)c3nnn(C4CCN(Cc5ccc(Br)nc5)CC4)c3n2)c1 [Example 15, 5-(3-{1-[(6-bromopyridin-3-yl)methyl]piperidin-4-yl}-7-morpholin-4-yl-3H-[1,2,3]triazolo[4,5-d]pyrimidin-5-yl)pyridin-3-ol] | 16 nM | 106 nM
O=C(Nc1ccncc1)Nc1ccc(-c2nc(N3CCOCC3)c3nnn(C4CCOCC4)c3n2)cc1 [Example 198, 1-{4-[7-morpholin-4-yl-3-(tetrahydro-2H-pyran-4-yl)-3H-[1,2,3]triazolo[4,5-d]pyrimidin-5-yl]phenyl}-3-pyridin-4-ylurea] | 10 nM | 43 nM
O=C(NCCc1c[nH]c2ccccc12)c1ccc(Cn2nnc3c(N4CCOCC4)nc(-c4cccc(O)c4)nc32)cc1 [Example 225, 4-{[5-(3-hydroxyphenyl)-7-morpholin-4-yl-3H-[1,2,3]triazolo[4,5-d]pyrimidin-3-yl]methyl}-N-[2-(1H-indol-3-yl)ethyl]benzamide] | 43 nM | 135 nM
CCn1nnc2c(N3CCOCC3)nc(-c3ccc(NC(=O)Nc4ccc(C(=O)N5CCN(c6ccccn6)CC5)cc4)cc3)nc21 [Example 58, 1-[4-(3-ethyl-7-morpholin-4-yl-3H-[1,2,3]triazolo[4,5-d]pyrimidin-5-yl)phenyl]-3-{4-[(4-pyridin-2-ylpiperazin-1-yl)carbonyl]phenyl}urea] | 2.5 nM | 14 nM
O=C(Nc1ccccc1)Nc1ccc(-c2nc(N3CCOCC3)c3nnn(CC4CN(Cc5ccc(-c6ccncc6)cc5)C4)c3n2)cc1 [Example 193, 1-[4-(7-Morpholin-4-yl-3-{[1-(4-pyridin-4-ylbenzyl)azetidin-3-yl]methyl}-3H-[1,2,3]triazolo[4,5-d]pyrimidin-5-yl)phenyl]-3-phenylurea] | 68 nM | 408 nM
CCC(=O)N1CCN(CCn2nnc3c(N4CCOCC4)nc(-c4cccc(O)c4)nc32)CC1 [Example 100, 3-{7-morpholin-4-yl-3-[2-(4-propionylpiperazin-1-yl)ethyl]-3H-[1,2,3]triazolo[4,5-d]pyrimidin-5-yl}phenol] | 1660 nM | 3140 nM
CC(C)CN1CCN(CCn2nnc3c(N4CCOCC4)nc(-c4cccc(O)c4)nc32)CC1 [Example 108, 3-{3-[2-(4-isobutylpiperazin-1-yl)ethyl]-7-morpholin-4-yl-3H-[1,2,3]triazolo[4,5-d]pyrimidin-5-yl}phenol] | 941 nM | 2770 nM
O=C(c1ccncc1)N1CCN(CCn2nnc3c(N4CCOCC4)nc(-c4cccc(O)c4)nc32)CC1 [Example 103, 3-{3-[2-(4-isonicotinoylpiperazin-1-yl)ethyl]-7-morpholin-4-yl-3H-[1,2,3]triazolo[4,5-d]pyrimidin-5-yl}phenol] | 987 nM | 5050 nM
O=C(c1ccc(F)cc1)N1CCN(CCn2nnc3c(N4CCOCC4)nc(-c4cccc(O)c4)nc32)CC1 [Example 101, 3-(3-{2-[4-(4-fluorobenzoyl)piperazin-1-yl]ethyl}-7-morpholin-4-yl-3H-[1,2,3]triazolo[4,5-d]pyrimidin-5-yl)phenol] | 538 nM | 3550 nM
Oc1cncc(-c2nc(N3CCOCC3)c3nnn(C4CCN(CN5CCN(Cc6ccccc6)CC5)CC4)c3n2)c1 [Example 28, 5-(3-{1-[(4-benzylpiperazin-1-yl)methyl]piperidin-4-yl}-7-morpholin-4-yl-3H-[1,2,3]triazolo[4,5-d]pyrimidin-5-yl)pyridin-3-ol] | 998 nM | 8830 nM
Oc1cccc(-c2nc(N3CCOCC3)c3nnn(CCN4CCN(Cc5cccnc5)CC4)c3n2)c1 [Example 111, 3-(7-morpholin-4-yl-3-{2-[4-(pyridin-3-ylmethyl)piperazin-1-yl]ethyl}-3H-[1,2,3]triazolo[4,5-d]pyrimidin-5-yl)phenol] | 439 nM | 2290 nM
CCn1nnc2c(N3CCOCC3)nc(-c3ccc(NC(=O)NC4CCNCC4)cc3)nc21 [Example 66, 1-[4-(3-ethyl-7-morpholin-4-yl-3H-[1,2,3]triazolo[4,5-d]pyrimidin-5-yl)phenyl]-3-piperidin-4-ylurea] | 400 nM | 2770 nM
O=C(Nc1ccccc1)Nc1ccc(-c2nc(N3CCOCC3)c3nnn(CCO)c3n2)cc1 [Example 186, 1-{4-[3-(2-hydroxyethyl)-7-morpholin-4-yl-3H-[1,2,3]triazolo[4,5-d]pyrimidin-5-yl]phenyl}-3-phenylurea] | 4.7 nM | 22 nM
COC(Cn1nnc2c(N3CCOCC3)nc(-c3ccc(NC(=O)Nc4ccc(C)cc4)cc3)nc21)OC [Example 179, 1-{4-[3-(2,2-dimethoxyethyl)-7-morpholin-4-yl-3H-[1,2,3]triazolo[4,5-d]pyrimidin-5-yl]phenyl}-3-(4-methylphenyl)urea] | 142 nM | 342 nM
CC(C)(C)OC(=O)N1CCC(n2nnc3c(N4CCOCC4)nc(-c4ccc(NC(=O)Nc5ccc(F)cc5)cc4)nc32)CC1 [Example 165, tert-butyl 4-[5-(4-{[(4-fluorophenyl)carbamoyl]amino}phenyl)-7-morpholin-4-yl-3H-[1,2,3]triazolo[4,5-d]pyrimidin-3-yl]piperidine-1-carboxylate] | 151 nM | 3580 nM
Oc1cccc(-c2nc(N3CCOCC3)c3nnn(CCN4CCN(Cc5cccc(F)c5)CC4)c3n2)c1 [Example 109, 3-(3-{2-[4-(3-fluorobenzyl)piperazin-1-yl]ethyl}-7-morpholin-4-yl-3H-[1,2,3]triazolo[4,5-d]pyrimidin-5-yl)phenol] | 242 nM | 900 nM
CN(C)CCNC(=O)Nc1ccc(-c2nc(N3CCOCC3)c3nnn(C4CCN(Cc5ccc(-c6ccncc6)cc5)CC4)c3n2)cc1 [Example 160, 1-(2-(dimethylamino)ethyl)-3-(4-(7-morpholino-3-(1-(4-(pyridin-4-yl)benzyl)piperidin-4-yl)-3H-[1,2,3]triazolo[4,5-d]pyrimidin-5-yl)phenyl)urea] | 13 nM | 108 nM
